Measurements reported in PubChem BioAssay AID270 (DTP/NCI, 2004).
“And” between values parts separate entries of the source, which are not always exact repeats. Identical values can stand only once. Results filed as inconclusive are left out.

Tested on: BDF1 mice, s.c. Lewis lung carcinoma, T/C %
Assay: NCI In Vivo Anticancer Drug Screen. Data for tumor model Lewis Lung Carcinoma (subcutaneous) in B6D2F1 (BDF1) mice
Conditions: higher = longer survival
How it was run: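 First, mice carry a transplantable tumor. Next, groups receive either compound or vehicle. Finally, survival or tumor dimensions in the dosed animals are divided by the corresponding control figure.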

CC1CCC(NC(=O)N(CCCl)N=O)CC1 (stereo not drawn)
T/C (endpoint: mean survival time, dose: 8.0 mg/kg/injection, schedule: Q08DX002 (ip), vehicle: saline + alcohol): 97 % of control | T/C (endpoint: mean survival time, dose: 16.0 mg/kg/injection, schedule: Q08DX002 (ip), vehicle: saline + alcohol): 105 % of control | T/C (endpoint: mean survival time, dose: 24.0 mg/kg/injection, schedule: Q08DX002 (ip), vehicle: saline + alcohol): 123 % of control | T/C (endpoint: median survival time, dose: 0.5 mg/kg/injection, schedule: Q01DX001 (ip), vehicle: Klucel (hydroxypropylcellulose) (HPC)): 107 % of control | T/C (endpoint: median survival time, dose: 1.0 mg/kg/injection, schedule: Q01DX001 (ip), vehicle: Klucel (hydroxypropylcellulose) (HPC)): 86 % of control | T/C (endpoint: median survival time, dose: 1.0 mg/kg/injection, schedule: Q01DX005 (ip), vehicle: saline + alcohol): 90 % of control and 107 % of control | T/C (endpoint: median survival time, dose: 1.0 mg/kg/injection, schedule: Q02DX009 (ip), vehicle: saline + alcohol): 106 % of control and 124 % of control | T/C (endpoint: median survival time, dose: 2.0 mg/kg/injection, schedule: Q01DX005 (ip), vehicle: saline + alcohol): 113 % of control and 114 % of control | T/C (endpoint: median survival time, dose: 2.0 mg/kg/injection, schedule: Q01DX009 (ip), vehicle: Klucel (hydroxypropylcellulose) (HPC)): 90 % of control and 105 % of control and 120 % of control | T/C (endpoint: median survival time, dose: 2.0 mg/kg/injection, schedule: Q01DX009 (ip), vehicle: saline with Tween-80): 91 % of control and 114 % of control | T/C (endpoint: median survival time, dose: 2.0 mg/kg/injection, schedule: Q02DX009 (ip), vehicle: saline + alcohol): 115 % of control | T/C (endpoint: median survival time, dose: 4.0 mg/kg/injection, schedule: Q01DX001 (ip), vehicle: Klucel (hydroxypropylcellulose) (HPC)): 86 % of control | T/C (endpoint: median survival time, dose: 4.0 mg/kg/injection, schedule: Q01DX005 (ip), vehicle: saline + alcohol): 93 % of control and 105 % of control | T/C (endpoint: median survival time, dose: 4.0 mg/kg/injection, schedule: Q01DX009 (ip), vehicle: Klucel (hydroxypropylcellulose) (HPC)): 92 % of control and 97 % of control | T/C (endpoint: median survival time, dose: 4.0 mg/kg/injection, schedule: Q01DX009 (ip), vehicle: saline with Tween-80): 98 % of control | T/C (endpoint: median survival time, dose: 4.0 mg/kg/injection, schedule: Q02DX009 (ip), vehicle: saline + alcohol): 90 % of control and 115 % of control | T/C (endpoint: median survival time, dose: 6.7 mg/kg/injection, schedule: Q01DX005 (ip), vehicle: saline with Tween-80): 105 % of control and 113 % of control | T/C (endpoint: median survival time, dose: 7.0 mg/kg/injection, schedule: Q01DX001 (ip), vehicle: saline with Tween-80): 104 % of control and 121 % of control | T/C (endpoint: median survival time, dose: 7.5 mg/kg/injection, schedule: Q01DX001 (ip), vehicle: Klucel (hydroxypropylcellulose) (HPC)): 86 % of control | T/C (endpoint: median survival time, dose: 7.5 mg/kg/injection, schedule: Q01DX001 (ip), vehicle: saline with Tween-80): 112 % of control | T/C (endpoint: median survival time, dose: 8.0 mg/kg/injection, schedule: Q01DX001 (ip), vehicle: Klucel (hydroxypropylcellulose) (HPC)): 96 % of control | T/C (endpoint: median survival time, dose: 8.0 mg/kg/injection, schedule: Q01DX001 (ip), vehicle: saline + alcohol): 100 % of control and 107 % of control | T/C (endpoint: median survival time, dose: 8.0 mg/kg/injection, schedule: Q01DX005 (ip), vehicle: saline + alcohol): 118 % of control and 120 % of control | T/C (endpoint: median survival time, dose: 8.0 mg/kg/injection, schedule: Q02DX009 (ip), vehicle: saline + alcohol): 118 % of control | T/C (endpoint: median survival time, dose: 8.0 mg/kg/injection, schedule: Q08DX002 (ip), vehicle: saline + alcohol): 95 % of control | T/C (endpoint: median survival time, dose: 9.0 mg/kg/injection, schedule: Q01DX001 (ip), vehicle: Klucel (hydroxypropylcellulose) (HPC)): 94 % of control | T/C (endpoint: median survival time, dose: 10.0 mg/kg/injection, schedule: Q01DX001 (ip), vehicle: Klucel (hydroxypropylcellulose) (HPC)): 85 % of control and 95 % of control | T/C (endpoint: median survival time, dose: 10.0 mg/kg/injection, schedule: Q01DX005 (ip), vehicle: saline with Tween-80): 157 % of control | T/C (endpoint: median survival time, dose: 10.7 mg/kg/injection, schedule: Q01DX001 (ip), vehicle: saline with Tween-80): 111 % of control | T/C (endpoint: median survival time, dose: 11.0 mg/kg/injection, schedule: Q01DX001 (ip), vehicle: saline with Tween-80): 94 % of control and 113 % of control | T/C (endpoint: median survival time, dose: 12.0 mg/kg/injection, schedule: Q01DX001 (ip), vehicle: gum acacia): 158 % of control | T/C (endpoint: median survival time, dose: 13.0 mg/kg/injection, schedule: Q04DX004 (ip), vehicle: saline with Tween-80): 115 % of control | T/C (endpoint: median survival time, dose: 15.0 mg/kg/injection, schedule: Q01DX001 (ip), vehicle: Klucel (hydroxypropylcellulose) (HPC)): 112 % of control | T/C (endpoint: median survival time, dose: 16.0 mg/kg/injection, schedule: Q01DX001 (ip), vehicle: gum acacia): 112 % of control | T/C (endpoint: median survival time, dose: 16.0 mg/kg/injection, schedule: Q01DX001 (ip), vehicle: saline + alcohol): 109 % of control | T/C (endpoint: median survival time, dose: 16.0 mg/kg/injection, schedule: Q01DX001 (ip), vehicle: saline with Tween-80): 95 % of control and 118 % of control | T/C (endpoint: median survival time, dose: 16.0 mg/kg/injection, schedule: Q05DX002 (ip), vehicle: gum acacia): 156 % of control | T/C (endpoint: median survival time, dose: 16.0 mg/kg/injection, schedule: Q06DX002 (ip), vehicle: gum acacia): 121 % of control
